Experimental data reported in patent US5318970A, “Isoxazole compounds, pharmaceutically acceptable salts thereof and medical uses thereof” (Taiho Pharmaceutical Co., Ltd., priority 1990, dated 1994).

Experiments:
[1] = molecular target: T1, 5-Lipoxygenase (Cavia porcellus, UniProt A0A286X958); test: 5-Lipoxygenase inhibitory effect (14C-arachidonic acid to 5-hydroxyeicosatetraenoic acid, cytosol of polymorphonuclear leukocytes); assay type: biochemical; conditions: guinea pig polymorphonuclear leukocyte cytosol; 5-hydroxyeicosatetraenoic acid by thin layer chromatography
T1 construct: the polymorphonuclear leukocytes were collected and the cytosol fraction was obtained as an enzyme source; endogenous in cells; host or cells: guinea pig peritoneal polymorphonuclear leukocytes (casein-elicited), cytosol fraction
T1 sequence (A0A286X958 1-674): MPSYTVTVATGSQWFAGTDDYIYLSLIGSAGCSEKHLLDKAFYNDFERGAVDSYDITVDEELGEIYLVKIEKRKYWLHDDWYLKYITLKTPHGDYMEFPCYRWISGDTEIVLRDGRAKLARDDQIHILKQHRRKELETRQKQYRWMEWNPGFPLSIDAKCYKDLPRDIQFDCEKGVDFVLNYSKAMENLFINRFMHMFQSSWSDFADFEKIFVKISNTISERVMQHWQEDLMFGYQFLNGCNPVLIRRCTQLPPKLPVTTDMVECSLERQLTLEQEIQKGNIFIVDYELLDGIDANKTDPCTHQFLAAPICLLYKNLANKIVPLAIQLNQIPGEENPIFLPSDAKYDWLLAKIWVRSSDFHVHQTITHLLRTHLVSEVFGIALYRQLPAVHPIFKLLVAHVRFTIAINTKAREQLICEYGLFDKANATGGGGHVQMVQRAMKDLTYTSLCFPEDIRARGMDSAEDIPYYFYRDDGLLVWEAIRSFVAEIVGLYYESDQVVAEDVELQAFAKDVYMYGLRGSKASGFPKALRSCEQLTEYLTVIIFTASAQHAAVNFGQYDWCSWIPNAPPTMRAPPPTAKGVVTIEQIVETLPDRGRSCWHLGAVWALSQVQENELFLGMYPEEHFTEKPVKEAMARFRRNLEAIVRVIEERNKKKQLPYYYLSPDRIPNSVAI
Description: (2) 5-Lipoxygenase inhibitory effect
The assay was carried out by the method described in Kenkichi Ochi et al., J. Biol. Chem., 258, 5754-5758 (1983).
Casein was injected into the abdominal cavity of a guinea pig, and the polymorphonuclear leukocytes were collected and the cytosol fraction was obtained as an enzyme source. ^14 C-arachidonic acid was reacted with the enzyme and the test drugs at various concentrations over a predetermined period of time. The obtained 5-hydroxyeicosatetraenoic acid was separated by thin layer chromatography and the radioactivity was determined. The IC50 values were calculated by the comparison with the radioactivity of the control.

[2] = molecular target: Cyclooxygenase; test: Cyclooxygenase inhibitory effect (14C-arachidonic acid to prostaglandin E2, seminal vesicular gland microsomes); assay type: biochemical; conditions: prostaglandin E2 by thin layer chromatography
Description: (1) Cyclooxygenase Inhibitory effect
This assay was carried out by the method described in Russell J. Taylor et al., Biochem. Pharmacol., 25, 2479-2484 (1976).
^14 C-arachidonic acid was reacted with seminal vesicular gland microsomes and the test drugs at various concentrations over a predetermined period of time and the obtained prostaglandin E2 was separated by thin layer chromatography. The radioactivity of prostaglandin E2 was determined by liquid scintillation counter. The IC50 values were calculated by the comparison with the radioactivity of the control.

IC50 [1] | IC50 [2] | SMILES
1800 nM | 121 nM | COc1ccc(-c2noc(CC(=O)NCCN3CCN(CCCCCCCCCCO)CC3)c2-c2ccc(OC)cc2)cc1 [Compound 6]
2500 nM | 146 nM | COc1ccc(-c2noc(CC(=O)NC(CN3CCN(CCCCCCCCCCO)CC3)c3ccccc3)c2-c2ccc(OC)cc2)cc1 (stereo not drawn) [Compound 7]
5900 nM | 66 nM | CCCCCCCCCCN1CCN(C(=O)CNC(=O)Cc2onc(-c3ccc(OC)cc3)c2-c2ccc(OC)cc2)CC1 [Compound 8]
